Measurements published in US4587340A, “Biopterin analogs” (Burroughs Wellcome Co., priority 1984, dated 1986).
One block for each compound: values may come before it.

Experiments:
Tryptophan hydroxylase = biological target: T1, Tryptophan hydroxylase (Rattus norvegicus, UniProt Q8CGU9); experiment: Tryptophan hydroxylase cofactor assay; format: biochemical; settings: for Activity for tryptophan hydroxylase: in words; for Tryptophan hydroxylase Vmax: tetrahydrobiopterin = 100
T1 construct: The preparation of tryptophan hydroxylase was a crude 30,000xg supernatant; from tissue
T1 sequence (Q8CGU9 1-485): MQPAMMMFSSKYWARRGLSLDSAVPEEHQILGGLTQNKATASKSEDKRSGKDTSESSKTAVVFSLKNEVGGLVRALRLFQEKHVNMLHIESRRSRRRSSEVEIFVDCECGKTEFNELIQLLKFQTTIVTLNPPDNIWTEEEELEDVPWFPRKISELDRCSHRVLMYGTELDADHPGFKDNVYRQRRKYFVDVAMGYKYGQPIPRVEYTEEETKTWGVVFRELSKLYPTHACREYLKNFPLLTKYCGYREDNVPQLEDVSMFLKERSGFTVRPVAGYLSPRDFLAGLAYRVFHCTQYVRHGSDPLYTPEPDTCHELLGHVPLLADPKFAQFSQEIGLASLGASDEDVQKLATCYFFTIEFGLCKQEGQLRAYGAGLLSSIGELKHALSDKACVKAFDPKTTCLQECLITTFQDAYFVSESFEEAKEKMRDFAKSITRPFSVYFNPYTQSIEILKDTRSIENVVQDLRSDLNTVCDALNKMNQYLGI
Method: Tryptophan hydroxylase was assayed according to a modification of the method of Renson J., et al (Biochem. Biophys. Acta 25: 504 (1966)).

[1] = biological target: T2, Phenylalanine hydroxylase (Rattus norvegicus, UniProt P04176); experiment: Phenylalanine hydroxylase cofactor assay; format: biochemical; settings: for Phenylalanine hydroxylase Vmax: tetrahydrobiopterin = 100
T2 construct: Phenylalanine hydroxylase was prepared from rat liver using hydrophobic chromatography; from tissue; host or cells: rat liver
T2 sequence (P04176 1-453): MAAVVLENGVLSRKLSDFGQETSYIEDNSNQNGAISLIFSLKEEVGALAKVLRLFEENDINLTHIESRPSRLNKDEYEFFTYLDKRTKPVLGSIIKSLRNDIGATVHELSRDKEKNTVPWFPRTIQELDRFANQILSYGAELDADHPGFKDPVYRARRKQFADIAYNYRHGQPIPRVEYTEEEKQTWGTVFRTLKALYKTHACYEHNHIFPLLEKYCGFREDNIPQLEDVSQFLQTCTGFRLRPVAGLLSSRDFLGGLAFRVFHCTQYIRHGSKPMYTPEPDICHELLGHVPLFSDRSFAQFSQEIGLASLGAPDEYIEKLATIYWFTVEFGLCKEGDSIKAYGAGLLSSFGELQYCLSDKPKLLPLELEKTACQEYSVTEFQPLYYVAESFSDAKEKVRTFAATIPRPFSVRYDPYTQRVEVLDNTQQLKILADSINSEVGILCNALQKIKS

bovine liver DHFR = biological target: T3, bovine liver DHFR (Bos taurus, UniProt P00376); experiment: Dihydrofolate reductase assay; format: biochemical; settings: for Dihydrofolate reductase V: 7,8-dihydro form of the pterin, 7,8-dihydrobiopterin = 100
T3 construct: from tissue; host or cells: bovine liver
T3 sequence (P00376 1-187): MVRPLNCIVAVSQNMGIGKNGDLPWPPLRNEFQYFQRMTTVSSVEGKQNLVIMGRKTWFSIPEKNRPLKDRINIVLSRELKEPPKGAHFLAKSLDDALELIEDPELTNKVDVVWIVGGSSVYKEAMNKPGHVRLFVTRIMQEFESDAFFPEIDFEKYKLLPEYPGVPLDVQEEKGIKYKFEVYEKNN
Method: These assays were carried out on the 7,8-dihydropterin analogs of the compounds of formula I which were tetrahydropterins. The 7,8-dihydropterins were obtained commercially (in the case of dihydrobiopterin) or synthesized from the corresponding compound of formula I. Synthesis of 7,8-dihydropterins involved the combination of 0.27 μmole of a compound of formula I, 20 μg of horseradish peroxidase, 0.6 μmole of hydrogen peroxide in 0.1 ml of 0.5M potassium phosphate buffer, pH 7.5. After 3 min at room temperature, 10 μg of bovine liver catalase was added. The production of the 7,8-dihydropterin was verified by U.V. spectroscopy.
The assay was carried out with bovine liver DHFR using a modification of the method of Bailey and Ayling (J. Biol. Chem., 253, 1598 (1978)) where the desired dihydropterin replaced dihydrobiopterin, and the HPLC system used consisted of an anaerobic 0.1M acetic acid (with or without 10% acetonitrite) solvent on a 25 cm×4.6 mm Dupont TMS-Zorbax column. In our hands, dihydrobiopterin is reduced at a rate 2.5% that of the natural substrate dihydrofolate.

Tyrosine hydroxylase = Tyrosine hydroxylase (Homo sapiens, UniProt P07101); experiment: Tyrosine hydroxylase cofactor assay; format: biochemical
Method: Tyrosine hydroxylase was partially purified through a 25-45% ammonium sulfate fraction. […] The enzyme was assayed by a modification of the method of Nagatsu, T., Levitt, M., and Udenfriend, S. (Anal. Biochem. 9, 122, (1964)) where the Dowex chromatography step was replaced by a charcoal extraction.

Parkinson's disease = settings: BH4 administration; cited from earlier work
[2] = biological target: T4, Dihydropteridine reductase (Homo sapiens, UniProt P09417); experiment: Dihydropteridine reductase assay; format: biochemical; settings: quinonoid dihydro form; biopterin form = 100
T4 sequence (P09417 1-244): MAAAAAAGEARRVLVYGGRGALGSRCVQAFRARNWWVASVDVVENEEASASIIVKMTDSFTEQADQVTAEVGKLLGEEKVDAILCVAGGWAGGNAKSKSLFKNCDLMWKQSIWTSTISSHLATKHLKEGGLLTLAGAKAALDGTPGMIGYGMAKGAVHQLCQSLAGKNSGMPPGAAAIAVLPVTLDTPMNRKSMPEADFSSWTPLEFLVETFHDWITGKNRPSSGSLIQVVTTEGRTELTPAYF
Method: Dihydropteridine reductase was assayed by the method of Craine, et al., (J. Biol. Chem., 247, 6082 (1972)).

atypical PKU = settings: large quantities; cited from earlier work
depression = settings: several patients; cited from earlier work
[3] = tested on: striatal dopamine synthesis, noradrenaline synthesis in peripheral nerves; settings: administration of BH4; cited from earlier work
[4] = background statement; cited from earlier work
[5] = background statement; cited from earlier work; remark: listed apart in the source

Sequence of Tyrosine hydroxylase (P07101 whole entry): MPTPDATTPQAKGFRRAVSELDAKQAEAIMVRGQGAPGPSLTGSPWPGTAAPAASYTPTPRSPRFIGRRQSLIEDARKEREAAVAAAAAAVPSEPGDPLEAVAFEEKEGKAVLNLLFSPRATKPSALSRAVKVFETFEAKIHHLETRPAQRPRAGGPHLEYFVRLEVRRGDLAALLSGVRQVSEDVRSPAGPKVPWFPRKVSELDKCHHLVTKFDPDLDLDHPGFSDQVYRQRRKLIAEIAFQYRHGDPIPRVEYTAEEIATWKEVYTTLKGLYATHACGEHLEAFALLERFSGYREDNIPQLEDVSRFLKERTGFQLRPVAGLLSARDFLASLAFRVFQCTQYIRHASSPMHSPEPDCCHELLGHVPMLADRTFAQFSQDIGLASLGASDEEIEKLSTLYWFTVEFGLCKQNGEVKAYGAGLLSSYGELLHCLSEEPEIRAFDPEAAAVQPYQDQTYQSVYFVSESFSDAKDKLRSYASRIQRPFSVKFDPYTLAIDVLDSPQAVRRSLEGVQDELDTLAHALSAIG

Activity for tryptophan hydroxylase (Tryptophan hydroxylase): successively less active | Activity for phenylalanine hydroxylase ([1]; in words): successively less active
SMILES: CCCOCC1CNc2nc(N)[nH]c(=O)c2N1 (stereo not drawn) [R=C3 H7]

Rate of reduction by DHFR relative to dihydrofolate, the natural substrate (bovine liver DHFR; bovine liver DHFR): 2.5%
SMILES: CC(O)C(O)C1=Nc2c(nc(N)[nH]c2=O)NC1 (stereo not drawn) [7,8-Dihydrobiopterin]

Activity for tryptophan hydroxylase (Tryptophan hydroxylase): active | Activity for phenylalanine hydroxylase ([1]; in words): active | Activity for tyrosine hydroxylase (Tyrosine hydroxylase; in words): active
SMILES: CCOCC1CNc2nc(N)[nH]c(=O)c2N1 (racemic) [R=C2 H5, (+-)-2-Amino-5,6,7,8-tetrahydro-6-ethoxymethyl-4(3H)-pteridinone]

Tryptophan hydroxylase Vmax (Tryptophan hydroxylase): 100% | Dihydropteridine reductase Vmax [2]: 100% | Specific activity of phenylalanine hydroxylase with the co-factor ([1]; 37°, rat liver enzyme): 1.0 μmol/mg protein per minute | Phenylalanine hydroxylase Vmax [1]: 100% | Dihydrofolate reductase V (bovine liver DHFR): 100% | Specific activity of tyrosine hydroxylase preparation with the cofactor (Tyrosine hydroxylase; 25-45% ammonium sulfate fraction): 4.0 nmole/mg protein (min) | Tyrosine hydroxylase Vmax (Tyrosine hydroxylase; tetrahydrobiopterin = 100): 100%
SMILES: C[C@H](O)[C@H](O)[C@H]1CNc2nc(N)[nH]c(=O)c2N1 [Tetrahydrobiopterin]
Specific activity of tryptophan hydroxylase with the cofactor (Tryptophan hydroxylase; 37°, crude 30,000xg supernatant): approximately 100 pmol product per milligram protein per minute | Symptoms of Parkinson's disease (Parkinson's disease): improve the symptoms of Parkinson's disease | Treatment of atypical PKU (atypical PKU): successfully treated | Substrate inhibition of phenylalanine hydroxylase by large amounts of phenylalanine ([1]; in words): large amounts of phenylalanine inhibit phenylalanine hydroxylase | Symptoms of depression (depression): improve the symptoms of depression | Noradrenaline synthesis in peripheral nerves [3]: nearly double | Striatal dopamine synthesis [3]: nearly double | Brain penetration [4]: penetrates brain poorly | Stability [5]: unstable

Tryptophan hydroxylase Vmax (Tryptophan hydroxylase): 54% | Phenylalanine hydroxylase Vmax [1]: 79% | Dihydrofolate reductase V (bovine liver DHFR): 800%
SMILES: COCC1CNc2nc(N)[nH]c(=O)c2N1 (racemic) [6-Methoxymethyl-tetrahydropterin, (+-)-2-Amino-5,6,7,8-tetrahydro-6-methoxymethyl-4(3H)-pteridinone]

SMILES: CCCCOCC1CNc2nc(N)[nH]c(=O)c2N1 (racemic) [R=C4 H9, (+-)-2-Amino-5,6,7,8-tetrahydro-6-n-butoxymethyl-4(3H)-pteridinone]
Activity for tryptophan hydroxylase (Tryptophan hydroxylase): successively less active | Activity for phenylalanine hydroxylase ([1]; in words): successively less active | Specificity for tyrosine hydroxylase (Tyrosine hydroxylase; versus tryptophan and phenylalanine hydroxylases): greatest specificity

Activity for tryptophan hydroxylase (Tryptophan hydroxylase): successively less active | Activity for phenylalanine hydroxylase ([1]; in words): successively less active
SMILES: CCCCCCCCOCC1CNc2nc(N)[nH]c(=O)c2N1 (stereo not drawn) [C8 H17]
